In patent US20220280457A1, “ORAL PHARMACEUTICAL IMMEDIATE RELEASE COMPOSITION AND METHOD OF TREATMENT FOR WEIGHT LOSS” (AARDVARK THERAPEUTICS INC., priority 2019, published 2022):

How the values were obtained:
male C57BL/6N DIO mice = assay: 56-day BID treatment of DIO mice: food consumption and body weight (Example 6, second in vivo study); parameters: species or system mouse; settings: for Body weight gain as compared to vehicle treatment: high-fat diet, oral BID 56 days
Description: In a second in vivo study, 45 male C57BL/6N DIO mice (purchased from Envigo at 18 weeks of age, fed with high-fat diet) were divided into three groups (15 in each group), which were orally administered vehicle (distilled water), 26.8 mg/kg of DB, or 23.1 mg/kg of DA respectively, twice daily (BID), with a 56-day treatment period to compare the efficacy of DB versus DA in food intake reduction and body weight control. Briefly, once weekly, the food weight for each cage was recorded at 0 hour and then 24 hours later, permitting calculation of food consumption for that 24-hour interval. In addition, starting from Day 0, the mice were weighed three times weekly (every 2-3 days).
The mean food consumption per animal for 24-hour intervals at indicated measurement days during the treatment period are shown in Table.
The mean absolute body weight change (in grams) and normalized body weight change (% of baseline) during 56-day treatment period of the three treatment groups are presented in […]. and Table 6.

male SD rats = assay: Single oral dose, 24-hour cumulative food intake study in rats (Example 6, first in vivo study); parameters: species or system rat; settings: for Cumulative food intake as compared with vehicle: all indicated time intervals, DA 23.1 mg/kg, DB 26.8 mg/kg
Description: This example compares efficacy of DA versus DB in food inhibition and body weight control. As a background, according to Avau et al., Sci. Rep. […] In our first in vivo study, 45 male SD rats (purchased from Envigo at 8-10 weeks of age) were divided into three groups (15 in each group), which were administered a single oral dose of vehicle (distilled water), 26.8 mg/kg of DB, or 23.1 mg/kg of DA respectively, with a 24-hour observational period, to compare the efficacy of DB versus DA in reducing food intake.

[1] = test system: C57BL/6NTad mice, diet-induced obesity (DIO) mouse model; assay: 56-day diet-induced obesity (DIO) mouse weight loss study, DA versus DB (Example 3); type: in vivo; settings: DA 23.1 mg/kg BID PO
Excerpt: The 56-day study determined the behavioral effects of bitter taste receptor agonists denatonium acetate (DA) compared to denatonium benzoate (DB) in a diet-induced obesity (DIO) mouse model. […] The study duration was a 3-5 day acclimation period +28 day study period and 2-3 day testing period after study. […] The mice were C57BL/6NTad mice at least 12 weeks in age and 15 mice per group (low dose DA, higher dose DA, high dose DB and control). […] Metabolic biomarkers (blood glucose, blood insulin, blood HbA1c) were measured at the beginning and end of the study. The DA, DB or distilled water control was administered per ostium gavage (PO) at a volume of 5 mL/kg body weight.

healthy volunteers = settings: cited from earlier work
rodent obesity models = settings: benzoate salt of denatonium; cited from earlier work
[2] = oral BID, DA 23.1 mg/kg or DB 26.8 mg/kg

SMILES: CC(=O)[O-].CC[N+](CC)(CC(=O)Nc1c(C)cccc1C)Cc1ccccc1 [DA, Denatonium acetate]
- Body weight gain, DA versus DB (male C57BL/6N DIO mice; Day 34 to Day 56, 23.1 mg/kg DA vs 26.8 mg/kg DB): body weight gain was less
- Food consumption, DA versus DB (male C57BL/6N DIO mice; all indicated measurement days except for Day 42, 23.1 mg/kg DA vs 26.8 mg/kg DB): food consumption was less
- Body weight gain as compared to vehicle treatment (male C57BL/6N DIO mice; DA 23.1 mg/kg, DB 26.8 mg/kg): less body weight gain
- Food consumption compared to vehicle-dosed mice (male C57BL/6N DIO mice; oral BID, 56 days, DA 23.1 mg/kg, DB 26.8 mg/kg): nominally decreased food consumption
- Mean normalized body weight (% of baseline) on study day 0 (male C57BL/6N DIO mice; [2]): 100.0 % of baseline
- Mean normalized body weight (% of baseline) on study day 25 (male C57BL/6N DIO mice; [2]): 100.0 % of baseline
- Mean normalized body weight (% of baseline) on study day 28 (male C57BL/6N DIO mice; [2]): 100.0 % of baseline
- Mean normalized body weight (% of baseline) on study day 30 (male C57BL/6N DIO mice; [2]): 100.0 % of baseline
- Food intake reduction, DA versus DB (male SD rats; 23.1 mg/kg DA (57.4 μmol/kg) vs 26.8 mg/kg DB (60 μmol/kg)): a greater food intake reduction
- Cumulative food intake as compared with vehicle (male SD rats): reduced cumulative food intake
- Average body weights at the indicated days (FIG. 1) ([1]; 56 days): lowest average body weights
- Serum insulin at the end of the 56 day study (FIG. 3) ([1]; versus pre-treatment baseline and vehicle): close to baseline value (i.e., pre-treatment) and noticeably lower compared to the vehicle-treated group

SMILES: CC[N+](CC)(CC(=O)Nc1c(C)cccc1C)Cc1ccccc1.O=C([O-])c1ccccc1 [DB, benzyl-[2-(2,6-dimethylanilino)-2-oxoethyl]-diethylazanium benzoate]
- Nutrient volume tolerance and satiation (healthy volunteers; 1 μmol/kg DB): decreased nutrient volume tolerance and increased satiation
- Gastric motility, nutrient volume tolerance, hunger ratings and satiation (healthy volunteers; intragastric administration): attenuated inter-digestive gastric motility, reduced nutrient volume tolerance, decreased hunger ratings, and increased satiation post meal
- Food intake and weight gain in rodent obesity models (rodent obesity models): suppressed food intake and inhibited weight gain
- Body weight gain as compared to vehicle treatment (male C57BL/6N DIO mice; DA 23.1 mg/kg, DB 26.8 mg/kg): less body weight gain
- Mean normalized body weight (% of baseline) on study day 0 (male C57BL/6N DIO mice; [2]): 100.0 % of baseline
- Mean normalized body weight (% of baseline) on study day 4 (male C57BL/6N DIO mice; oral BID, DA 23.1 mg/kg or DB 26.8 mg/kg, day 4): 100.5 % of baseline
- Mean normalized body weight (% of baseline) on study day 7 (male C57BL/6N DIO mice; oral BID, DA 23.1 mg/kg or DB 26.8 mg/kg, day 7): 99.7 % of baseline
- Mean normalized body weight (% of baseline) on study day 9 (male C57BL/6N DIO mice; oral BID, DA 23.1 mg/kg or DB 26.8 mg/kg, day 9): 99.4 % of baseline
- Mean normalized body weight (% of baseline) on study day 11 (male C57BL/6N DIO mice; oral BID, DA 23.1 mg/kg or DB 26.8 mg/kg, day 11): 99.0 % of baseline
- Mean normalized body weight (% of baseline) on study day 14 (male C57BL/6N DIO mice; oral BID, DA 23.1 mg/kg or DB 26.8 mg/kg, day 14): 99.3 % of baseline
- Mean normalized body weight (% of baseline) on study day 16 (male C57BL/6N DIO mice; oral BID, DA 23.1 mg/kg or DB 26.8 mg/kg, day 16): 98.0 % of baseline
- Mean normalized body weight (% of baseline) on study day 18 (male C57BL/6N DIO mice; oral BID, DA 23.1 mg/kg or DB 26.8 mg/kg, day 18): 97.9 % of baseline
- Mean normalized body weight (% of baseline) on study day 21 (male C57BL/6N DIO mice; oral BID, DA 23.1 mg/kg or DB 26.8 mg/kg, day 21): 99.5 % of baseline
- Mean normalized body weight (% of baseline) on study day 23 (male C57BL/6N DIO mice; oral BID, DA 23.1 mg/kg or DB 26.8 mg/kg, day 23): 100.5 % of baseline
- Mean normalized body weight (% of baseline) on study day 25 (male C57BL/6N DIO mice; [2]): 100.3 % of baseline
- Mean normalized body weight (% of baseline) on study day 28 (male C57BL/6N DIO mice; [2]): 100.2 % of baseline
- Mean normalized body weight (% of baseline) on study day 30 (male C57BL/6N DIO mice; [2]): 100.5 % of baseline
- Mean normalized body weight (% of baseline) on study day 32 (male C57BL/6N DIO mice; oral BID, DA 23.1 mg/kg or DB 26.8 mg/kg, day 32): 102.8 % of baseline
- Mean normalized body weight (% of baseline) on study day 34 (male C57BL/6N DIO mice; oral BID, DA 23.1 mg/kg or DB 26.8 mg/kg, day 34): 103.6 % of baseline
- Mean normalized body weight (% of baseline) on study day 36 (male C57BL/6N DIO mice; oral BID, DA 23.1 mg/kg or DB 26.8 mg/kg, day 36): 104.1 % of baseline
- Mean normalized body weight (% of baseline) on study day 39 (male C57BL/6N DIO mice; oral BID, DA 23.1 mg/kg or DB 26.8 mg/kg, day 39): 104.7 % of baseline
- Mean normalized body weight (% of baseline) on study day 41 (male C57BL/6N DIO mice; oral BID, DA 23.1 mg/kg or DB 26.8 mg/kg, day 41): 105.3 % of baseline
- Mean normalized body weight (% of baseline) on study day 46 (male C57BL/6N DIO mice; oral BID, DA 23.1 mg/kg or DB 26.8 mg/kg, day 46): 106.0 % of baseline
- Mean normalized body weight (% of baseline) on study day 49 (male C57BL/6N DIO mice; oral BID, DA 23.1 mg/kg or DB 26.8 mg/kg, day 49): 107.8 % of baseline
- Mean normalized body weight (% of baseline) on study day 51 (male C57BL/6N DIO mice; oral BID, DA 23.1 mg/kg or DB 26.8 mg/kg, day 51): 107.8 % of baseline
- Mean normalized body weight (% of baseline) on study day 53 (male C57BL/6N DIO mice; oral BID, DA 23.1 mg/kg or DB 26.8 mg/kg, day 53): 107.4 % of baseline
- Mean normalized body weight (% of baseline) on study day 56 (male C57BL/6N DIO mice; oral BID, DA 23.1 mg/kg or DB 26.8 mg/kg, day 56): 108.4 % of baseline
- Cumulative food intake as compared with vehicle (male SD rats): reduced cumulative food intake
